Data: article PMC5397059, “Design, synthesis and structure-activity relationship study of wollamide B; a new potential anti TB agent” (PLoS ONE, 2017)
Values after ≈ are worked out from the molar mass of the structure shown. Values joined by “and” are separate entries in the source; they are usually repeats but may differ in a detail not shown here. Identical values can stand only once. Like-named read-outs stand apart in the source and are kept apart here. Non-standard residues stand in square brackets, D forms with d. Residues, ends and D or L forms follow the SMILES beside them. dPhe(4-Cl) = N[C@H](Cc1ccc(Cl)cc1)C(=O)O; dOrn = NCCC[C@@H](N)C(=O)O

How the values were obtained:
[1] = tested on: mycobacteria; design: method as in PMID 25229313; settings: cited from earlier work
[2] = target: T1, human serum albumin (Homo sapiens, UniProt P02768); experiment: HPLC retention on an immobilised HSA column; HSA immobilised on the column; gradient retention times of the compounds converted to % HSA binding by a calibration set of compounds of known HSA binding; UV detection
[3] = Chemi-Luminescent Nitrogen Detection (CLND) kinetic solubility assay; assay type: physicochemical; settings: phosphate buffered saline, pH 7.4
In short: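 10 mM DMSO stock diluted 5 μL into 100 uL pH 7.4 phosphate buffered saline, equilibrated 1 h at room temperature, then filtered. Filtrate quantified by calibrated flow-injection CLND; standard error ±30 μM, upper limit 500 μM.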

[4] = Chrom logD assay; assay type: physicochemical
In short: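 Reversed-phase C18 HPLC with fast acetonitrile gradient starting from 100% pH 7.4 buffer; CHI from retention times via calibration standards. ChromlogD = 0.0857CHI − 2.00; assay error ±3 CHI or ±0.25 ChromlogD.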

[5] = Artificial membrane permeability assay; assay type: in vitro ADME; settings: PAMPA, pH 7.4
In short: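 PAMPA using L-α-phosphatidylcholine in cholesterol decane as the membrane, with 50 mM phosphate buffer containing 0.5% encapsin at pH 7.4 on both sides. Compound added to donor; plates shaken 3 h at room temperature in duplicate. Donor and receiver concentrations measured by HPLC; permeability reported in nm/sec.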

[6] = target: T1, human serum albumin; experiment: Human serum albumin (HSA) binding assay; assay type: in vitro ADME; settings: for % HSA: human serum albumin binding
In short: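 Gradient retention times measured on an immobilized HSA HPLC column with UV detection. Retention times converted to HSA binding values by a linear calibration against reference compounds of known binding, run before each batch.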

[7] = Plasma stability assay, mouse plasma; assay type: in vitro ADME; settings: for remaining at 2 h, 1 uM: CD1, mouse, plasma
Method: (§1) Plasma stability of the compounds was assessed in CD1 mouse and human plasma. Plasma was spiked with 1 μL of a 10 mM of each test compound solution to produce a 1 uM incubation. Three separate 300 μl aliquots were then taken from each tube and incubated at 37°C for 2 h. At each time point (0, 15, 30, 60 and 120 min), 50 μL of plasma were collected from each sample. Samples were extracted by protein precipitation with 250 μL of 0.1% AcOH acetonitrile methanol 3–1 (v/v) containing 1uM internal standard and centrifuged for 10min at 2800rpm. Supernatants were collected prior the injection onto an LC-MS/MS system. Analyte/Internal standard peak area ratios were referenced to the zero time-point samples as 100% in order to determine the percentage of compound remaining for each time-point. Ln plots of the % remaining for each compound were used to determine the half-life for the plasma incubations.

[8] = Plasma stability assay, human plasma; assay type: in vitro ADME; settings: for remaining at 2 h, 1 uM: human, plasma
Method: as §1

[9] = Intrinsic clearance (CLint) assay, mouse liver microsomes; assay type: in vitro ADME; settings: for CLint Mouse: mouse liver microsomes; for half-life at 0.5 µM: mouse, pooled mouse liver microsomes, pH 7.4; for CLpred Mouse: predicted metabolic clearance
In short: (§2)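 Pooled liver microsomes (0.5 mg/mL protein) with test compound at 0.5 μM (0.5% DMSO), 5 mM MgCl2 and pH 7.4 phosphate buffer were run at 37°C; 1 mM NADPH started the reaction. Samples at 0-45 min were analysed by LC-MS/MS; t1/2 and CLint were derived from the ln peak-area-ratio slope.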

[10] = Intrinsic clearance (CLint) assay, human liver microsomes; assay type: in vitro ADME; settings: for CLint Human: human liver microsomes; for half-life at 0.5 µM: human, pooled human liver microsomes; for CLpred Human: predicted metabolic clearance
In short: as §2

[11] = tested on: Mtb H37Rv; settings: for MIC against Mtb H37Rv: duplicate, analogues
[12] = tested on: M. bovis; settings: cited from earlier work
[13] = tested on: intracellular mycobacterial survival in murine bone marrow-derived macrophages; design: method as in PMID 25229313; settings: cited from earlier work
[14] = kinetic aqueous solubility by CLND, read-out: Solubility
[15] = passive artificial membrane permeability, read-out: Permeability
[16] = 2 hours at 37°C, triplicates, read-out: Plasma stability (% remaining) Mouse
[17] = 2 hours at 37°C, triplicates, read-out: Plasma stability (% remaining) Human
[18] = read-out: Microsomal t1/2 Mouse
[19] = pH 7.4, human liver microsomes, read-out: Microsomal t1/2 Human

T1 sequence (P02768 25-609): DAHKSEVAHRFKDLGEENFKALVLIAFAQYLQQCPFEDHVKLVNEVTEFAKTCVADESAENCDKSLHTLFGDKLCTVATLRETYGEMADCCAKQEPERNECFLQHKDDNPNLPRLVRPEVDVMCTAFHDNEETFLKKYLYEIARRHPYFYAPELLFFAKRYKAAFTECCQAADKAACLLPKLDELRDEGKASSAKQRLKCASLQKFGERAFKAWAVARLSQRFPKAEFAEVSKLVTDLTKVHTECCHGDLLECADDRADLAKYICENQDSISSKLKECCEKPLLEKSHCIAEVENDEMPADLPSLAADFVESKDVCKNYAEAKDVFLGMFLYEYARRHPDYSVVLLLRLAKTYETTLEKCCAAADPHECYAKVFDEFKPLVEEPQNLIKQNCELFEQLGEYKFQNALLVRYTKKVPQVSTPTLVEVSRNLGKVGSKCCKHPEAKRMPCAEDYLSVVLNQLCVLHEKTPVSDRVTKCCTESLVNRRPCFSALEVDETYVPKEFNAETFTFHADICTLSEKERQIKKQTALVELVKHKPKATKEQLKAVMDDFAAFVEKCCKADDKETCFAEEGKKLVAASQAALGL

Row | Molecule | solubility kinetic at 1 h [3, 14] [µg/mL] | chromatographic logD ([4]; pH 7.4, read-out: Log D) | Papp at 3 h [5, 15] [×10⁻⁶ cm/s] | % HSA [6] | remaining at 2 h, 1 uM [7, 16] [%] | remaining at 2 h, 1 uM [8, 17] [%] | % LBF Mouse ([9]; liver blood flow) [%] | CLint Mouse [9] [mL/min/g tissue] | half-life at 0.5 µM [9, 18] [h] | CLpred Mouse [9] [mL/min/kg] | CLint Human [10] [mL/min/g tissue] | half-life at 0.5 µM [10, 19] [h] | % LBF Human ([10]; liver blood flow) [%] | MIC against Mtb H37Rv [11] [µM] | CLpred Human [10] [mL/min/kg] | further results
1 | desotamide B |  |  |  |  |  |  |  |  |  |  |  |  |  |  |  | antimycobacterial activity [1]: no antimycobacterial activity
2 | wollamide B (peptide) |  |  |  |  |  |  |  |  |  |  |  |  |  |  |  | % Human serum albumin binding [2]: 72.7%
3 | CC(C)C[C@H]1NC(=O)[C@H](C)NC(=O)[C@H](Cc2c[nH]c3ccccc23)NC(=O)[C@@H](CCCN)NC(=O)[C@H](CC(N)=O)NC(=O)[C@H](C(C)C)NC1=O [Compound 2c] (cyclo(A[dL]VN[dOrn]W)) | > 134 | 0.94 | < 1 | 43.14% | 93 | 107 | <16.27 | <0.48 | > 2.31 | <20.50 | <0.40 | > 2.31 | <35.08 | >80 |  | 
4 | CC(C)C[C@@H]1NC(=O)[C@H](Cc2c[nH]c3ccccc23)NC(=O)[C@@H](CCCN)NC(=O)[C@H](CC(N)=O)NC(=O)[C@H](C(C)C)NC(=O)[C@@H](CC(C)C)NC1=O [Compound 1c, wollamide B] (cyclo([dOrn]WL[dL]VN)) |  |  |  |  |  |  |  |  |  |  |  |  |  |  |  | solubility kinetic at 1 h ([3]; kinetic aqueous solubility, Table 1, read-out: Solubility CLND): 151 µg/mL (≈ 204 µM); chromatographic logD ([4]; pH 7.4, Table 1, read-out: Log D pH = 7.4): 1.8; Papp at 3 h ([5]; Table 1, read-out: Artificial membrane permeability): < 0.3 ×10⁻⁶ cm/s; % Human serum albumin binding ([6]; Table 1): 73% and 72.66%; Plasma stability (% remaining), Mouse plasma ([7]; 2 h at 37°C, Table 1): More than 90 % remaining; remaining at 2 h, 1 uM ([7]; 2 h at 37°C, Table 1, read-out: Plasma stability (% remaining), Mouse plasma): 90%; Plasma stability (% remaining), Human Plasma ([8]; 2 h at 37°C, Table 1): More than 90 % remaining; remaining at 2 h, 1 uM ([8]; 2 h at 37°C, Table 1, read-out: Plasma stability (% remaining), Human Plasma): 100%; Mouse CLint ([9]; Table 1): <0.50 mL/min/g; Mouse predicted % LBF ([9]; liver blood flow, Table 1): <16.83%; half-life at 0.5 µM ([9]; Table 1, read-out: Mouse microsomal half-life): > 2.31 h; Human CLint ([10]; Table 1): 0.97 mL/min/g; half-life at 0.5 µM ([10]; pH 7.4, Table 1, read-out: Human microsomal half-life): 0.947 h; Human predicted % LBF ([10]; liver blood flow, Table 1): 56.88%; % LBF given as a fraction (metabolic stability class) ([10]; predicted hepatic clearance, microsomal stability): 1/2; IC50: 56 µM; Mtb H37Rv MIC ([11]; Table 1): 0.6 µM; IC50 [12]: 3.1 µM; intracellular mycobacterial survival [13]: reduce the intracellular mycobacterial survival
5 | CC(C)C[C@@H]1NC(=O)[C@H](Cc2c[nH]c3ccccc23)NC(=O)[C@@H](CCCN)NC(=O)[C@H](C)NC(=O)[C@H](C(C)C)NC(=O)[C@@H](CC(C)C)NC1=O [Compound 4c] (cyclo(A[dOrn]WL[dL]V)) | 143 (≈ 205 µM) | 2 | < 0.3 | 83% and 82.76% | 100 | 95 | <16.27 | <0.48 | > 2.31 | <20.50 | <0.40 | > 2.31 | <35.08 | 20 (≈ 13.9 µg/mL) | 6.31 | 
6 | CC(C)C[C@@H]1NC(=O)[C@@H](Cc2ccc(Cl)cc2)NC(=O)[C@@H](CCCN)NC(=O)[C@H](CC(N)=O)NC(=O)[C@H](C(C)C)NC(=O)[C@@H](CC(C)C)NC1=O [Compound 14c] (cyclo(L[dL]VN[dOrn][dPhe(4-Cl)])) | ≥ 218 | 1.9 | < 1 | 70.25% | 70 | 104 | <16.27 | <0.48 | > 2.31 | <20.50 | <0.40 | > 2.31 | <35.08 | 40 (≈ 29.4 µg/mL) | 6.31 | 
